Target: T1, mu opiate receptor (MOR) (Rattus norvegicus, UniProt P33535)
T1 construct: from tissue; host or cells: striatum (membrane preparation)
Format: biochemical
Details: for Concentration of FLNA-Binding Compound as Agonist 0.1 μM / Concentration of FLNA-Binding Compound as Agonist 1 μM / Concentration of FLNA-Binding Compound as Agonist 1 μM + BFNA: [35S]GTPγS binding to Gαo in striatal membranes; for Concentration of FLNA-Binding Compound as Agonist 0.1 μM: compound 0.1 μM; for Concentration of FLNA-Binding Compound as Agonist 1 μM: compound 1 μM; for Concentration of FLNA-Binding Compound as Agonist 1 μM + BFNA: compound 1 μM plus 1 μM β-funaltrexamine (MOR antagonist)

T1 sequence (P33535 whole entry): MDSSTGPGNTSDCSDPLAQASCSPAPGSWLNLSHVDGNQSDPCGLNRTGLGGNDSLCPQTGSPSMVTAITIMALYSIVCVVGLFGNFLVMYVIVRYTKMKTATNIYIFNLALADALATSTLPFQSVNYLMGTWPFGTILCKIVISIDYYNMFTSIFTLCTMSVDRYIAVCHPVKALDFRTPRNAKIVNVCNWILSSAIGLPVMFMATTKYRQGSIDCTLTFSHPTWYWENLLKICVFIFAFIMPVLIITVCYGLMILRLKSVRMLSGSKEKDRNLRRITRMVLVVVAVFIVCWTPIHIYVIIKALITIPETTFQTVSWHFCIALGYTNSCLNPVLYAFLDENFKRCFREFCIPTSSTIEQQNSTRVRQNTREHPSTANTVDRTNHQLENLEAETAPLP

Structure (SMILES) | % DAMGO (0.1 μM) | % DAMGO (1 μM) | % DAMGO + BFNA | Concentration of FLNA-Binding Compound as Agonist 0.1 μM | Concentration of FLNA-Binding Compound as Agonist 1 μM | Concentration of FLNA-Binding Compound as Agonist 1 μM + BFNA
COc1ccc(C(=O)CC2c3c(cc4c(c3OC)OCO4)CC[N+]2(C)C)c(O)c1 (stereo not drawn) [Compound B0033] | 77.6% | 69.2% | 95.4% | 149.3% | 188.9% | 41.9%
COc1cccc(CCC(=O)CC2c3c(cc4c(c3OC)OCO4)CC[N+]2(C)C)c1 (stereo not drawn) [Compound B0034] | 71.6% | 88.1% | 80.2% | 122.5% | 235.2% | 41.8%
COc1cc(OC)cc(C(=O)CC2c3c(cc4c(c3OC)OCO4)CC[N+]2(C)C)c1 (stereo not drawn) [Compound B0035] | 109.8% | 93.2% | 142.4% | 188.0% | 248.7% | 74.2%
COc1cccc(OC)c1CC(=O)CC1c2c(cc3c(c2OC)OCO3)CC[N+]1(C)C (stereo not drawn) [Compound B0036] | 39.2% | 52.1% | 199.7% | 61.4% | 120.6% | 65.1%
COc1cc(C(=O)CC2c3c(cc4c(c3OC)OCO4)CC[N+]2(C)C)cc(OC)c1OC (stereo not drawn) [Compound B0037] | 76.5% | 80.4% | 325.8% | 119.8% | 186.0% | 106.2%
COc1cccc(CC(=O)CC2c3c(cc4c(c3OC)OCO4)CC[N+]2(C)C)c1OC (stereo not drawn) [Compound B0038] | 94.2% | 88.7% | 359.2% | 147.5% | 205.5% | 117.1%
COCOc1ccc(CCC(=O)CC2c3c(cc4c(c3OC)OCO4)CC[N+]2(C)C)cc1 (stereo not drawn) [Compound B0040] | 93.2% | 105.1% | 169.6% | 146.0% | 243.3% | 55.3%
COCOc1ccc(C(=O)CC2c3c(cc4c(c3OC)OCO4)CC[N+]2(C)C)cc1C (stereo not drawn) [Compound B0041] | 39.3% | 47.2% | 128.5% | 61.6% | 109.3% | 41.9%
COc1ccc(CCC(=O)CC2c3c(cc4c(c3OC)OCO4)CC[N+]2(C)C)cc1OC (stereo not drawn) [Compound B0042] | 39.6% | 42.3% | 163.9% | 69.9% | 107.5% | 43.1%
COc1ccc(CCC(=O)CC2c3c(cc4c(c3OC)OCO4)CC[N+]2(C)C)c(OC)c1 (stereo not drawn) [Compound B0043] | 42.4% | 97.6% | 632.7% | 74.8% | 248.1% | 166.4%
COc1ccc(OC)c(CCC(=O)CC2c3c(cc4c(c3OC)OCO4)CC[N+]2(C)C)c1 (stereo not drawn) [Compound B0044] | 49.4% | 66.9% | 511.8% | 87.3% | 170.0% | 134.6%
COc1ccccc1CCC(=O)CC1c2c(cc3c(c2OC)OCO3)CC[N+]1(C)C (stereo not drawn) [Compound B0045] | 82.6% | 83.4% | 257.1% | 129.3% | 193.1% | 83.8%
COc1ccc(CCC(=O)CC2c3c(cc4c(c3OC)OCO4)CCN2C)cc1 (stereo not drawn) [Compound B0047] | 106.3% | 92.6% | 260.1% | 187.8% | 235.6% | 68.4%
COc1ccc(CCC(O)CC2c3c(cc4c(c3OC)OCO4)CCN2C)cc1 (stereo not drawn) [Compound B0048] | 104.8% | 87.8% | 298.5% | 185.1% | 223.4% | 78.5%
COc1ccc(CCC(O)CC2c3c(cc4c(c3OC)OCO4)CC[N+]2(C)C)cc1 (stereo not drawn) [Compound B0049] | 102.8% | 143.1% | 506.5% | 181.6% | 364.0% | 133.2%
COc1c2c(cc3c1C(CC(=O)CCc1ccccc1)N(C)CC3)OCO2 (stereo not drawn) [Compound B0050] | 58.1% | 96.4% | 294.0% | 98.2% | 211.0% | 48.8%
COc1c2c(cc3c1C(CC(O)CCc1ccccc1)N(C)CC3)OCO2 (stereo not drawn) [Compound B0051] | 68.4% | 76.7% | 263.9% | 115.6% | 167.9% | 43.8%
COc1c2c(cc3c1C(CC(O)CCc1ccccc1)[N+](C)(C)CC3)OCO2 (stereo not drawn) [Compound B0052] | 58.1% | 69.3% | 246.4% | 98.2% | 151.7% | 40.9%
COc1c2c(cc3c1C(CC(=O)Cc1ccccc1C)N(C)CC3)OCO2 (stereo not drawn) [Compound B0053] | 94.8% | 137.0% | 809.0% | 160.2% | 299.8% | 134.3%
COc1c2c(cc3c1C(CC(=O)Cc1ccccc1F)[N+](C)(C)CC3)OCO2 (stereo not drawn) [Compound B0055] | 91.8% | 133.1% | 446.8% | 162.1% | 338.5% | 117.5%
COc1ccc(CCCCC2c3c(cc4c(c3OC)OCO4)CC[N+]2(C)C)cc1 (stereo not drawn) [Compound B0056] | 98.9% | 113.6% | 158.9% | 174.7% | 288.8% | 41.8%
Cc1ccc(S(=O)(=O)N2CCC3(CC2)OCCN3S(=O)(=O)c2ccc(C)cc2)cc1 [Compound C0001] | 75.2% | 66.6% | 52.9% | 129.3% | 184.3% | 33.9%
COc1cccc(S(=O)(=O)N2CCC3(CC2)OCCN3S(=O)(=O)c2cccc(OC)c2)c1 [Compound C0002] | 51.4% | 33.9% | 6.1% | 88.4% | 93.8% | 3.9%
COc1ccccc1S(=O)(=O)N1CCC2(CC1)OCCN2S(=O)(=O)c1ccccc1OC [Compound C0003] | 91.9% | 83.3% | 163.9% | 162.3% | 215.9% | 107.7%
N#Cc1ccccc1S(=O)(=O)N1CCC2(CC1)OCCN2S(=O)(=O)c1ccccc1C#N [Compound C0004] | 72.1% | 85.4% | 99.7% | 122.0% | 228.4% | 65.8%
O=S(=O)(c1cccc(OC(F)(F)F)c1)N1CCC2(CC1)OCCN2S(=O)(=O)c1cccc(OC(F)(F)F)c1 [Compound C0005] | 105.4% | 85.1% | 319.4% | 180.4% | 227.2% | 166.4%
O=S(=O)(c1ccc(OC(F)(F)F)cc1)N1CCC2(CC1)OCCN2S(=O)(=O)c1ccc(OC(F)(F)F)cc1 [Compound C0006] | 70.6% | 73.8% | 7.2% | 121.5% | 204.0% | 4.6%

Source: US10760052B2, “Method of inhibiting tau phosphorylation” (priority 2012, dated 2020)
